Test system: culture from a ruminant animal foregut
Assay: administration of feed material and methanogenesis inhibitor to culturing device liquor, recording CH4 and dH2 (FIG. 11)
Type: cell-based, sheep
Settings: final CHBr3 concentration 6 μM in 1.5 L liquor
Description: FIG. 11 comprises a graph 1101 of the measured temperature on the upper y-axis 1102 shown in degrees Celsius (° C.), the measured CH4 on the middle y-axis 1103 in percentage (%), and the measured dH2 on the lower y-axis 1104 in milli Volts (mV) versus time on the x-axis 1105 measured in hours.
The plot 1106 of CH4 is the output of the SGX methane sensor as described in FIG. 8 800 and the accompanying text.
The plot 1006 of dH2 is the voltage generated by a hydrogen fuel cell as described in FIG. 7 700 and the accompanying text.
The culturing device vessel was inoculated with a culture sourced from a freshly slaughtered grass-fed ewe hogget sheep of mixed breed. After resection of the reticulorumen organ, 2.5 L the rumen content was determined to have a pH Of 6.0 and then transferred to a 5 L jug and mixed with 2.5 L of rainwater. A 0.7 L aliquot of this mixture was used to inoculate the vessel of a culturing device containing 0.8 L of rainwater pre-heated to the culturing device setpoint temperature of about 39° C.
After inoculation, the culturing device was prescribed the movement algorithm described in FIG. 10 1000 above.
As described herein, the vessel of the present examples has an internal volume of about 2.0 L and is typically operated with 1.5 L of liquor and 0.5 L of headspace. […]

With `BrC(Br)Br` [CHBr3] the “measured CH4 (plot 1106), effect of added CHBr3” value (given with daily feed on, 39° C.) was “decreasing CH4” and the “measured dH2 (plot 1107, hydrogen fuel cell voltage)” value (then ceased, dH2 anticipated to increase when methanogenesis is reduced) was “mirrored in the plot 1107 of the dH2”.

Reference: patent publication US20260218109A1, “CULTURING DEVICE AND METHOD” (METHANE […] LIMITED, priority 2023, published 2026)
